Measurements from article PMC7440668, “Nitrogen coordinated import and export of arginine across the yeast vacuolar membrane” (PLoS Genetics, 2020).

Key:
Format in all cases: biochemical
Ypq2 [1] = target: T1, Ypq2 (Saccharomyces cerevisiae, UniProt Q06328); test: inhibition of Ypq2-dependent […]-Arg uptake into isolated vacuoles, […] min; conditions: 50 μM 14C-Arg, no ATP; competitor added simultaneously
T1 construct: native full-length protein in isolated intact vacuoles; ypq1-2-3 triple-mutant background subtracted from ypq1-3 double-mutant
T1 sequence (Q06328 1-317): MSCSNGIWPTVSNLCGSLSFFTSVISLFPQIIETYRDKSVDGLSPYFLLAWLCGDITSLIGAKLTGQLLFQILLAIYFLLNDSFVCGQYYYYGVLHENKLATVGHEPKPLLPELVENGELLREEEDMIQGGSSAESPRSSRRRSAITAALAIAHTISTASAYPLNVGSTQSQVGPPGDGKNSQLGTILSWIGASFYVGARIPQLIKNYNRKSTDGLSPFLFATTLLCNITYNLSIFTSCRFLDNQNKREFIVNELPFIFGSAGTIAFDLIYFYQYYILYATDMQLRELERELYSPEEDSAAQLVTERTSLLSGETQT

Avt1 = target: T2, Avt1 (Saccharomyces cerevisiae, UniProt P47082); test: 3H-L-tyrosine uptake into isolated intact vacuoles, wild type versus avt1 deletion; conditions: 50 μM 3H-tyrosine, 4 mM ATP, 27 °C; needs H+ gradient; labelled compound
T2 construct: native full-length protein in isolated intact vacuoles; wild type versus avt1 deletion mutant
T2 sequence (P47082 1-602): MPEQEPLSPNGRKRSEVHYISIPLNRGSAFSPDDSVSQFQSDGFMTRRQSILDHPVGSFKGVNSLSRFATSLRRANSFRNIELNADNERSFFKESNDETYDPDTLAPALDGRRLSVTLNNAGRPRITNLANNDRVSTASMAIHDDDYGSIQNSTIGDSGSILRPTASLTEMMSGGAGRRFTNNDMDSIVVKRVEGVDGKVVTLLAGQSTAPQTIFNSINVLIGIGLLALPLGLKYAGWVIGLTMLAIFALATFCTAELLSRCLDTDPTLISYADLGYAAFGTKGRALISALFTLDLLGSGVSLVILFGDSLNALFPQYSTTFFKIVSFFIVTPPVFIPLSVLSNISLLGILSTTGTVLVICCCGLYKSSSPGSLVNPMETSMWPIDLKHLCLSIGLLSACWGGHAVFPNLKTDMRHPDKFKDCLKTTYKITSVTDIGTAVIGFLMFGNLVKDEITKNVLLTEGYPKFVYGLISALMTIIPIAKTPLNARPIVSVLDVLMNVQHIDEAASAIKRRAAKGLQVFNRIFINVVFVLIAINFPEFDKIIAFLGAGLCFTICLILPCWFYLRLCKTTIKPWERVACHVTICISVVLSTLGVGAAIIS

Ypq2 [2] = target: T1, Ypq2; test: inhibition of Ypq2-dependent […]-Arg uptake into isolated vacuoles, […] min; conditions: read-out: % inhibition at 5 mM

Row | Compound | % inhibition at 5 mM (Ypq2 [1]) | other results
1 | N[C@H](Cc1c[nH]cn1)C(=O)O [D-isomer of His] | Canavanine, the D-Arg and the L- and D-isomers of His completely inhibited the uptake | –
2 | N[C@@H](Cc1cnc[nH]1)C(=O)O [His] | Canavanine, the D-Arg and the L- and D-isomers of His completely inhibited the uptake | –
3 | N[C@@H](Cc1ccc(O)cc1)C(=O)O [tyrosine] | – | 3H-L-tyrosine uptake into isolated intact vacuoles, wild type versus avt1 deleti (Avt1): Nor was it detected in vacuoles isolated from the avt1Δ mutant
4 | NCCC[C@H](N)C(=O)O [ornithine] | – | inhibition at 5000 µM (Ypq2 [2]): ~50%
5 | N=C(N)NCCC[C@@H](N)C(=O)O [D-Arg] | Canavanine, the D-Arg and the L- and D-isomers of His completely inhibited the uptake | –
6 | NCCCC[C@H](N)C(=O)O [Lys] | – | inhibition at 5000 µM (Ypq2 [2]): ~50%
7 | N=C(N)NOCC[C@H](N)C(=O)O [Canavanine] | Canavanine, the D-Arg and the L- and D-isomers of His completely inhibited the uptake | –
